Here are results for 40 compounds from patent US20240342139A1, “DEVELOPMENT AND OPTIMIZATION OF THIOCHROMENOTHIAZOLE-BASED MSUT2 INHIBITORS AS CANDIDATES FOR THE TREATMENT OF TAUOPATHY” (The United States Government As Represented By the …, priority 2023, published 2024).

Data set [1] addresses T1, MSUT2 (Homo sapiens (Human), UniProt Q6PJT7). Description: primary tau-inclusion neuronal assay (MSUT2 inhibitor activity). The data set is classed as cell-based. As to conditions: for IC50: dose-dependent activity, primary tau-inclusion neuronal assay; for biological activity in the in vitro assay (SAR summary in words): preliminary SAR summary. The protocol:
A variety of analogs in which the tricycle scaffold was modified were prepared and evaluated for their MSUT2 inhibitor activity.
The N-substitution pattern was also explored. The dose-dependent activity of these compounds was determined using a primary tau-inclusion neuronal assay and is summarized in Table 3 below.

Data set [2] deals with MSUT2/poly(A)RNA binding interaction (Homo sapiens (Human), UniProt Q6PJT7). Kind of data set: high-throughput AlphaScreen, dose-response in vitro. Format: biochemical. As to conditions: AlphaScreen dose-response profile in vitro. The source says:
MSUT2 has been identified as a therapeutic target for the treatment of tauopathy, and MSUT2 KO has decreased the accumulation of pathological tau and reduced the formation of NFTs in tau-transgenic PS19 mice models. Screening of >100,000 compounds in an AlphaScreen and an orthogonal FP-HTS assay identified a promising thiochromenathiazole-based inhibitor of the MSUT2/poly(A)RNA binding interaction. Preliminary SAR experiments have been conducted to confirm biological activity and to identify novel biologically active compounds of interest. […] Due to challenges in functionalizing an electron-deficient tricycle scaffold, the synthesis of analogues will coincide with an effort towards the optimization of synthetic conditions.
For orientation: In Alpha technology, singlet oxygen from a donor bead excites a nearby acceptor bead.

In data set [3] the target is T1, MSUT2. Kind of data set: photo-affinity labelling experiments (PAL probe BL-1138, TAMRA fluorescence SDS-PAGE). Format: binding. As to conditions: for ligand-protein binding mode (decrease in tagging density with competitor): used as competitor against PAL probe BL-1138, full MSUT2 and GST-MSUT2 construct. The source says: FIG. 7A and FIG. 7B show representative data from photo-affinity labelling experiments performed using UWK-5 (lanes 1-4) and BL-1122 (lanes 5-8) as competitors. Gel visualized by fluorescence imaging using TAMRA (excitation/emission maxima 546/579 nm).

Data set [4] has as its target T1, MSUT2. Kind of data set: NMR Saturation Transfer Difference studies. The settings on record: 15 μM MSUT2 protein; down-field shift of ligand signals at 4.10 and 3.05 ppm; Kd could not be calculated. The data set is classed as binding. As to the method: The concentration of MSUT2 protein is 15 μM. Ratio of ligand to protein is indicated to the left of individual spectra.

T1 sequence (Q6PJT7 whole entry, species assumed): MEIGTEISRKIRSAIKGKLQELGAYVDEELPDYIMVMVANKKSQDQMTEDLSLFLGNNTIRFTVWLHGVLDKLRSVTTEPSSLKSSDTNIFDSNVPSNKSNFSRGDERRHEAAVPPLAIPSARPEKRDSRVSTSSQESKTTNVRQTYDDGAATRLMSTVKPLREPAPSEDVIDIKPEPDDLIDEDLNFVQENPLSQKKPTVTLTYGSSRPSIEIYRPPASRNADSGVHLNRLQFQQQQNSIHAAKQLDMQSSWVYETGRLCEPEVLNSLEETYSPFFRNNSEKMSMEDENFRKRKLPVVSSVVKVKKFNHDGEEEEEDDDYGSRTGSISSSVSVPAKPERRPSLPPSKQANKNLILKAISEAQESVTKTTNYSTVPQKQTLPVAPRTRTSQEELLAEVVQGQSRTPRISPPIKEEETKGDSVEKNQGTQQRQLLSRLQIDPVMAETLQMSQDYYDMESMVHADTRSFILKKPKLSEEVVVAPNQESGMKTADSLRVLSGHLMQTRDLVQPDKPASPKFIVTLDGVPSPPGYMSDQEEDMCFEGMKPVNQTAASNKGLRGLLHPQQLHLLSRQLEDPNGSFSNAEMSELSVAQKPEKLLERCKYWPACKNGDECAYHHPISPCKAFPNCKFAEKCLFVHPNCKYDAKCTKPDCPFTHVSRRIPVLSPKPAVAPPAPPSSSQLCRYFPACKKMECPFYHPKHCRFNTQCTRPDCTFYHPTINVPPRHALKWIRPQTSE
Sequence of MSUT2/poly(A)RNA binding interaction (Q6PJT7 whole entry, species assumed): as above

Take `CCN(CC)c1ccc(CNc2nc3c(s2)CSc2ccccc2-3)cc1` [BL-1041]: it took 5.67 µM to reach half-maximal inhibition against MSUT2 [1] (IC50). With `C#CCCNC(=O)Nc1nc2c(s1)CSc1ccccc1-2` [BL-1085], on MSUT2 [1], the IC50 – broadly, the point on the concentration scale where inhibition reaches its midpoint – turned out to be 12.2 µM and the “biological activity in the in vitro assay (SAR summary in words)” value (“biological activity” for short) is reported as “favorable activity”. At MSUT2 [1], `COC(=O)CC[C@H](NC(=O)OC(C)(C)C)C(=O)Nc1nc2c(s1)CSc1ccccc1-2` [BL-1081] gave an IC50 of 12.3 µM. In other words, the double-digit micromolar range. `Nc1nc2c(s1)COc1ccccc1-2` [BL-0959]: at MSUT2 [1], 3.91 µM corresponded to half-maximal inhibition (IC50) and the “biological activity” value was “tolerated”. In the case of `C=C(Cc1nc2c(s1)CSc1ccccc1-2)c1ccc(S(=O)(=O)CC)cc1` [UWK-5], the half-inhibitory concentration (IC50) was 1.1 µM in data set [2] and 0.586 µM against MSUT2 [1]. In addition, the “ligand-protein binding mode (decrease in tagging density with competitor)” value on MSUT2 [3] is “competitive”. Consider `Nc1nc2c(s1)Cc1ccccc1-2` [BL-1125], for which the IC50 against MSUT2 [1] was found to be 49.5 µM. Same read-out and setting: under `O=C(Nc1ccccc1)Nc1nc2c(s1)CSc1ccccc1-2` [BL-1131] stands 32 µM. With `Cc1ccc(CNc2nc3c(s2)CSc2ccccc2-3)s1` [BL-1132], at MSUT2 [1], the IC50 turned out to be 7.73 µM and the “biological activity” value is “widely tolerated”. Regarding `CC1(C)Sc2ccccc2-c2nc(N)sc21` [BL-1124], the half-maximal inhibitory concentration (IC50) on MSUT2 [1] stood at 51.7 µM. On the same count and under the same terms, under `NCC(=O)Nc1nc2c(s1)CSc1ccccc1-2` [BL-1046] stands 23 µM.

As to `Nc1nc2c(s1)CCc1ccccc1-2` [BL-0960], at MSUT2 [1], the IC50 was more than 100 µM and the “biological activity” value was “loss of biological activity”. Turning to `Nc1nc2c(s1)CSc1ncccc1-2` [BL-1047], on MSUT2 [1], the IC50 was 11 µM.

For `CCS(=O)(=O)c1ccc(C(=O)Nc2nc3c(s2)COc2ccccc2-3)cc1` [BL-0962], the IC50 against MSUT2 [1] was more than 100 µM.

Regarding `O=S(=O)(Nc1nc2c(s1)CSc1ccccc1-2)c1ccccc1` [BL-1027], the half-inhibitory concentration (IC50) against MSUT2 [1] was 24.7 µM.

With `Nc1nc2c(s1)CSc1ccccc1-2` [BL-0957], it took 8.17 µM to reach half-maximal inhibition at MSUT2 [1] (IC50).

Compound `Nc1nc2c(s1)CSc1ccc(F)cc1-2` [BL-0980] yielded an IC50 against MSUT2 [1] of 22.9 µM. Consider `C#CCOC(=O)Nc1nc2c(s1)CSc1ccccc1-2` [BL-1088], for which, at MSUT2 [1], the IC50 came out at 14.3 µM and the “biological activity” value is “favorable activity”.

Compound `C#CCNC(=O)Nc1nc2c(s1)CSc1ccccc1-2` [BL-1084] displayed a concentration for half-maximal inhibition (IC50) against MSUT2 [1] of 23.2 µM. Still for that read-out and setting: then `CC(C)(C)OC(=O)NCC(=O)Nc1nc2c(s1)CSc1ccccc1-2` [BL-1045], with 45.1 µM. With `O=C(NCCS(=O)(=O)O)Nc1nc2c(s1)CSc1ccccc1-2` [BL-1122], the “ligand-protein binding mode (decrease in tagging density with competitor)” value at MSUT2 [3] was “competitive”. Also, at MSUT2 [1], inhibition was half-maximal at 3.26 µM (IC50) and the “biological activity” value is recorded as “favorable activity”. In addition, the “binding affinity of ligand for MSUT2 protein” value on MSUT2 [4] is reported as “tight binding affinity”. Regarding `O=S(=O)(Nc1nc2c(s1)COc1ccccc1-2)c1ccccc1` [BL-1039], the IC50 at MSUT2 [1] was 34.2 µM. Same read-out and setting: then `Fc1ccc(CNc2nc3c(s2)COc2ccccc2-3)cc1` [BL-1038], with 20.8 µM. The same measure, in the same setting: then `Fc1ccc(CNc2nc3c(s2)CCc2ccccc2-3)cc1` [BL-1051], with 21.8 µM; and `CC(C)Cc1ccc(CNc2nc3c(s2)CSc2ccccc2-3)cc1` [BL-1043], with 20.2 µM.

Take `Nc1nc2c(s1)CS(=O)(=O)c1ccccc1-2` [BL-1075]: on MSUT2 [1], the 50% inhibitory concentration (IC50) was more than 128 µM and the “biological activity” value is on record as “complete loss of biological activity”. In the same order, the values of `Nc1nc2c(s1)CSCC2` [BL-1018] are more than 128 µM and “eliminates activity”. In the case of `Nc1nc2c(s1)CSc1cc(F)ccc1-2` [BL-0981], on MSUT2 [1], the half-maximal inhibitory concentration (IC50) was 22.3 µM. On to `Nc1nc(-c2ccccc2)cs1` [BL-1055], for which, on MSUT2 [1], the half-maximal inhibitory concentration (IC50) is more than 128 µM and the “biological activity” value is reported as “eliminates activity”.

Compound `CC(=O)N1N=C(c2ccccc2)SC12CCSc1ccccc12` (stereo not drawn) [BL-1123] showed a 50% inhibitory concentration (IC50) on MSUT2 [1] of 16 µM. Regarding `CCS(=O)(=O)c1ccc(C(=O)Nc2nc3c(s2)CSCC3)cc1`, at MSUT2 [1], the half-maximal inhibitory concentration (IC50) amounted to 109 µM and the “biological activity” value is listed as “eliminates activity”.

Compound `CCS(=O)(=O)c1ccc(CNc2nc3c(s2)CSc2ccccc2-3)cc1` [BL-1126] showed a half-inhibitory concentration (IC50) at MSUT2 [1] of 13.4 µM. This counts as double-digit micromolar. Take `Nc1nc2c(s1)CSc1c(F)cc(F)cc1-2` [BL-1017]: the midpoint of inhibition at MSUT2 [1], the IC50, lay at 60.9 µM. On the same count and under the same terms, then `C#Cc1ccc(CNc2nc3c(s2)CSc2ccccc2-3)cc1` [BL-1092], with 11.7 µM. With `Nc1nc2c(s1)CCCc1ccccc1-2` [BL-0961], on MSUT2 [1], the concentration for half-maximal inhibition (IC50) was more than 100 µM and the “biological activity” value is on record as “loss of biological activity”. In the case of `CCS(=O)(=O)c1ccc(C(=O)Nc2nc3c(s2)CCc2ccccc2-3)cc1` [BL-0963], on MSUT2 [1], inhibition was half-maximal at 45.1 µM (IC50). This counts as double-digit micromolar. For the compound `C#CCCC1(CCNC(=O)Nc2nc3c(s2)CSc2ccccc2-3)N=N1` [BL-1138], the “fluorescence tagging of MSUT2 protein” value at MSUT2 [3] (PAL probe clicked with TAMRA-biotin-azide) is listed as “target engagement”.

Take `c1ccc(CNc2nc3c(s2)CSc2ccccc2-3)cc1` [BL-1133]: at MSUT2 [1], the half-maximal inhibitory concentration (IC50) turned out to be 7.6 µM and the “biological activity” value was “widely tolerated”. `Nc1nc2c(s1)CSc1c(F)cccc1-2` [BL-0979] registered an IC50 on MSUT2 [1] of 23.6 µM. This counts as double-digit micromolar. Turning to `CCS(=O)(=O)c1ccc(C(=O)Nc2nc(-c3ccccc3)cs2)cc1` [BL-1057], on MSUT2 [1], the concentration for half-maximal inhibition (IC50) is more than 128 µM and the “biological activity” value is given as “eliminates activity”.

Consider `Fc1ccc(CNc2nc3c(s2)CSc2ccccc2-3)cc1` [BL-1023], for which the IC50 at MSUT2 [1] turned out to be 16.9 µM.
